# Assay results as given in patent US20230257396A1, “MACROCYCLES AND THEIR USE” (BLOSSOMHILL THERAPEUTICS, INC., priority 2020, published 2023).
# Residue numbers refer to the chain shown, from its start.
# Experiments:
# Assay in all cases: KINOMEscan kinase binding assay (Eurofins/DiscoveRx), % Ctrl
# kinases [1] = biological target: T1, kinases (Homo sapiens, UniProt P10721, T670I/V559D)
# T1 construct: purchased Eurofins/DiscoveRx; host or cells: E. coli BL21-derived host (T7 phage display) for most kinases; HEK-293 for the rest
# T1 sequence (P10721 26-976 V559D/T670I): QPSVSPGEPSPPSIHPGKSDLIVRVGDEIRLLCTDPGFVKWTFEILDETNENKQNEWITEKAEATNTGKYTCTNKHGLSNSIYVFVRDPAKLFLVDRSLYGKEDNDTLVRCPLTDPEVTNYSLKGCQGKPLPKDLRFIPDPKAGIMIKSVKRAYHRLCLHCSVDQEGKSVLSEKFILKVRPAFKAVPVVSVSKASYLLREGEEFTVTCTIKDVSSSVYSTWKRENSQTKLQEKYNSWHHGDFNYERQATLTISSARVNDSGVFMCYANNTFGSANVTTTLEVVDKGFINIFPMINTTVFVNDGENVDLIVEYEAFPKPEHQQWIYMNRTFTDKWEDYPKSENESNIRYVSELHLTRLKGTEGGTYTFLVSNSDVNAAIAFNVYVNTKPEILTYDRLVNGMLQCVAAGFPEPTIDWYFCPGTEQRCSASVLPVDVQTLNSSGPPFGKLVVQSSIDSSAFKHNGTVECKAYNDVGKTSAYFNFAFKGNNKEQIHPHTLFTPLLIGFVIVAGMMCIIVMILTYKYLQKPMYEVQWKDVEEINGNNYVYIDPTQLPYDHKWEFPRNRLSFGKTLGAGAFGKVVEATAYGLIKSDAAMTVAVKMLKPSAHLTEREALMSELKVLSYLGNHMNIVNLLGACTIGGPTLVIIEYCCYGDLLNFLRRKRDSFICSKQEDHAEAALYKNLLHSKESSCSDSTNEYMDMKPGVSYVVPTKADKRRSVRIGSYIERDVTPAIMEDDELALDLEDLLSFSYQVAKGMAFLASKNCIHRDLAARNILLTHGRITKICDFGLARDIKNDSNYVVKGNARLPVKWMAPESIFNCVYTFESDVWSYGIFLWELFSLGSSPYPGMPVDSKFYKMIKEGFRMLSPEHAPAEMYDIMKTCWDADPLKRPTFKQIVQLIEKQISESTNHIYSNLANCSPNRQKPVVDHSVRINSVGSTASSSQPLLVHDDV
# Protocol: (§1) Kinase binding assays were performed at Eurofins/DiscoveRx using the general KINOMEscan Protocol (Fabian, M. A. et al., “A small molecule-kinase interaction map for clinical kinase inhibitors,” Nat. Biotechnol. 2005, 23(3):329-36). For most assays, kinase-tagged T7 phage strains were prepared in an E. coli host derived from the BL21 strain. E. coli were grown to log-phase and infected with T7 phage and incubated with shaking at 32° C. until lysis. The lysates were centrifuged and filtered to remove cell debris. The remaining kinases were produced in HEK-293 cells and subsequently tagged with DNA for qPCR detection. Streptavidin-coated magnetic beads were treated with biotinylated small molecule ligands for 30 minutes at room temperature to generate affinity resins for kinase assays. The liganded beads were blocked with excess biotin and washed with blocking buffer (SeaBlock (Pierce), 1% BSA, 0.05% Tween 20, 1 mM DTT) to remove unbound ligand and to reduce nonspecific binding. Binding reactions were assembled by combining kinases, liganded affinity beads, and test compounds in 1×binding buffer (20% SeaBlock, 0.17×PBS, 0.05% Tween 20, 6 mM DTT). All reactions were performed in polystyrene 96-well plates in a final volume of 0.135 mL. The assay plates were incubated at room temperature with shaking for 1 hour and the affinity beads were washed with washbuffer (1×PBS, 0.05% Tween 20). The beads were then re-suspended in elution buffer (1× PBS, 0.05% Tween 20, 0.5 μM non-biotinylated affinity ligand) and incubated at room temperature with shaking for 30 minutes. The kinase concentration in the eluates was measured by qPCR. Results for compounds tested in this assay at a given concentration are reported as “% Ctrl”, where lower numbers indicate stronger binding in the matrix.
# (§2) (test compound signal-positive control signal)/(negative control signal-positive control signal) X100
# kinases [2] = biological target: T2, kinases (Homo sapiens, UniProt P00519, M351T)
# T2 construct: purchased Eurofins/DiscoveRx; host or cells: E. coli BL21-derived host (T7 phage display) for most kinases; HEK-293 for the rest
# Protocol: as §1, §2
# kinases [3] = biological target: T3, kinases (Homo sapiens, UniProt P36888, K663Q)
# T3 construct: purchased Eurofins/DiscoveRx; host or cells: E. coli BL21-derived host (T7 phage display) for most kinases; HEK-293 for the rest
# T3 sequence (P36888 27-993 K663Q): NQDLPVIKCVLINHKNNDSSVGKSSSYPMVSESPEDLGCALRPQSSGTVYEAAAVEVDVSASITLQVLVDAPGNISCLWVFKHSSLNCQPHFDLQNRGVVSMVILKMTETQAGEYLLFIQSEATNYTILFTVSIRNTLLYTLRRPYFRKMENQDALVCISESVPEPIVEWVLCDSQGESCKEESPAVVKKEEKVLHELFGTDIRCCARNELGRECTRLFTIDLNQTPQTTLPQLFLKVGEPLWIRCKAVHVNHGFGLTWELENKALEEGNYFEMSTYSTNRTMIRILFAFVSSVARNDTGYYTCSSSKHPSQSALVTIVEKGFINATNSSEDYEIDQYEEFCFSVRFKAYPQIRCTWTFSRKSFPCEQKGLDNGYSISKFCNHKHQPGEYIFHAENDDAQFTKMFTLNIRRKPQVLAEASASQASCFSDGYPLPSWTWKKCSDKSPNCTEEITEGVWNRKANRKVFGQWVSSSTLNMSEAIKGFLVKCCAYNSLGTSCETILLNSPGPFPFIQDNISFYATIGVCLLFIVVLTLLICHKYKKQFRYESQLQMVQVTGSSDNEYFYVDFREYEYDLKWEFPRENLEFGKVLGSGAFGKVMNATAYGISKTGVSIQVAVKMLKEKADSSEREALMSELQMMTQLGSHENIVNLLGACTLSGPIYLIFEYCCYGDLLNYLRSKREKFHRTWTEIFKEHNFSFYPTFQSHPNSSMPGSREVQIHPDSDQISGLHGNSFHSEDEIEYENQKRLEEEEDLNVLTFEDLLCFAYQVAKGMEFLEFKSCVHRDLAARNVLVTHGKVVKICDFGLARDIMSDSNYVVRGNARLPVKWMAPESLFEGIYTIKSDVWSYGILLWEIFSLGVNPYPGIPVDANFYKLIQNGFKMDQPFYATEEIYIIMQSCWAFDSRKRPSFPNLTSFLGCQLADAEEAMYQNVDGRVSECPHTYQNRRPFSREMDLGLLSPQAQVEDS
# Protocol: as §1, §2
# kinases [4] = biological target: T4, kinases (Homo sapiens, UniProt P07949)
# T4 construct: purchased Eurofins/DiscoveRx; host or cells: E. coli BL21-derived host (T7 phage display) for most kinases; HEK-293 for the rest
# T4 sequence (P07949 29-1114): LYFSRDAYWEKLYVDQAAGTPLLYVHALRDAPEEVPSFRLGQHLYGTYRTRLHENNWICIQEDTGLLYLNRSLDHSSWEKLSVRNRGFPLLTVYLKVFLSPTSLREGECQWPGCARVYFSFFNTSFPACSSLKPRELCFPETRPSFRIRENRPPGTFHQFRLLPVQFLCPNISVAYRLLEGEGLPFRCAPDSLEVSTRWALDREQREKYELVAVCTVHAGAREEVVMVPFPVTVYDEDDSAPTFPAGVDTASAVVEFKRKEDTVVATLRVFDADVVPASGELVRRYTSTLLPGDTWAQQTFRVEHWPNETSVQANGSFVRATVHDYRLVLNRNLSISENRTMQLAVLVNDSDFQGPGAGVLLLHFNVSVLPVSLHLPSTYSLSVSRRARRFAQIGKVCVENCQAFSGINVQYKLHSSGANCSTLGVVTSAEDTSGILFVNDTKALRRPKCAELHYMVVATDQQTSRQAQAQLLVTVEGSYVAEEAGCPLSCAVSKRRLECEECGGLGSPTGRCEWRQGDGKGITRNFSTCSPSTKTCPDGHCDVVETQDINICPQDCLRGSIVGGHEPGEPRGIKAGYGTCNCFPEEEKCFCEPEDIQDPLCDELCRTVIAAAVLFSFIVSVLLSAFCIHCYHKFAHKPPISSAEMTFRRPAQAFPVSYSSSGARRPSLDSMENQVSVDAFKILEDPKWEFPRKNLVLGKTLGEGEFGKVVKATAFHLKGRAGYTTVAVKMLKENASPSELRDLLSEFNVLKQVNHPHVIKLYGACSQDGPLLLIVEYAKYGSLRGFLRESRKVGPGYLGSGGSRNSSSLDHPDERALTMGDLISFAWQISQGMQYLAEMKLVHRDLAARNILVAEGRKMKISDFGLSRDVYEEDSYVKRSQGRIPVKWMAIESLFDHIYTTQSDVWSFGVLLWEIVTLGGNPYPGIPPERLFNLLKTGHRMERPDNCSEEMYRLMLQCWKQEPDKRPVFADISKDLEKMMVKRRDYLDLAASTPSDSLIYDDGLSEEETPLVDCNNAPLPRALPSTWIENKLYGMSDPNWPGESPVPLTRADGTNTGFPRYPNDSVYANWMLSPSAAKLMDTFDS
# Protocol: as §1, §2
# kinases [5] = biological target: T5, kinases (Homo sapiens, UniProt P00533, L858R/T790M)
# T5 construct: purchased Eurofins/DiscoveRx; host or cells: E. coli BL21-derived host (T7 phage display) for most kinases; HEK-293 for the rest
# Protocol: as §1, §2
# kinases [6] = biological target: T6, kinases (Homo sapiens, UniProt P36888, D835Y)
# T6 construct: purchased Eurofins/DiscoveRx; host or cells: E. coli BL21-derived host (T7 phage display) for most kinases; HEK-293 for the rest
# T6 sequence (P36888 27-993 D835Y): T3 sequence (P36888 27-993 K663Q) with Q637K, D809Y
# Protocol: as §1, §2
# [7] = target ABL1(M351T)-phosphorylated; 1 μM
# [8] = target EGFR(L858R, T790M); 1 μM
# [9] = 1 μM; target ABL1(M351T)-phosphorylated
# [10] = 1 μM; target EGFR(L858R, T790M)
# [11] = 1 μM; ABL1(M351T)-phosphorylated
Compound,"% Ctrl, KIT(V559D, T670I) (kinases [1]; target KIT(V559D, T670I); 1 μM) [% Ctrl]","% Ctrl, ABL1(M351T)-phosphorylated (kinases [2]; [7]) [% Ctrl]","% Ctrl, FLT3(K663Q) (kinases [3]; target FLT3(K663Q); 1 μM) [% Ctrl]","% Ctrl, RET (kinases [4]; target RET; 1 μM) [% Ctrl]","% Ctrl, EGFR(L858R, T790M) (kinases [5]; [8]) [% Ctrl]","% Ctrl, FLT3(D835Y) (kinases [6]; target FLT3(D835Y); 1 μM) [% Ctrl]","% Ctrl, KIT(V559D, T670I) (kinases [1]; 1 μM; KIT(V559D, T670I)) [% Ctrl]","% Ctrl, ABL1(M351T)-phosphorylated (kinases [2]; [11]) [% Ctrl]","% Ctrl, FLT3(K663Q) (kinases [3]; 1 μM; FLT3(K663Q)) [% Ctrl]","% Ctrl, RET (kinases [4]; 1 μM; RET) [% Ctrl]","% Ctrl, EGFR(L858R, T790M) (kinases [5]; 1 μM; EGFR(L858R, T790M)) [% Ctrl]","% Ctrl, FLT3(D835Y) (kinases [6]; 1 μM; FLT3(D835Y)) [% Ctrl]",further results
"Cc1cc2c([nH]1)/C=C1\C(=O)Nc3cnc(cc31)-c1cn[nH]c1CNCCN(C)C2=O [Ex. 55, [3a(4)Z]-6,9-dimethyl-9,10,11,12,13,14-hexahydro-17,1-(azenometheno)pyrazolo[4,3-m]dipyrrolo[3,2-f:3′,4′-i][1,4]diazacyclopentadecine-3,8(2,5H)-dione]",50,3.7,1.2,4.2,35,2,,,,,,,
"CN1CCOc2cc3c(cc2Cl)NC(=O)/C3=C\c2[nH]ccc2C(=O)N(C)CC1 [Ex. 164, [16a(17)Z]-19-chloro-2,5,8-trimethyl-5,6,7,8,9,10-hexahydro-12,14-(ethanediylidene)dipyrrolo[3,2-i:3′,4′-l][1,4,7]oxadiazacyclopentadecine-4,16(1H,15H)-dione]",,,,,,,,,,,,,"% Ctrl, KIT(V559D, T670I) (kinases [1]; 1 μM; target KIT(V559D, T670I)): 2.4 % Ctrl; % Ctrl, ABL1(M351T)-phosphorylated (kinases [2]; [9]): 0.3 % Ctrl; % Ctrl, FLT3(K663Q) (kinases [3]; 1 μM; target FLT3(K663Q)): 1.4 % Ctrl; % Ctrl, RET (kinases [4]; 1 μM; target RET): 0 % Ctrl; % Ctrl, EGFR(L858R, T790M) (kinases [5]; [10]): 80 % Ctrl; % Ctrl, FLT3(D835Y) (kinases [6]; 1 μM; target FLT3(D835Y)): 0.5 % Ctrl"
"Cc1cc2c([nH]1)/C=C1\C(=O)Nc3ccc(nc31)-c1ccccc1OCCCNC2=O [Ex.22, [3a(4)Z]-6-methyl-9,10,11,12-tetrahydro-1,18-(ethanediylidene)dipyrrolo[3,2-g:3′,4′-j][1,5,12]benzoxadiazacyclopentadecine-3,8(2H,5H)-dione]",,,,,,,100,100,100,81,97,93,
"Cc1cc2c([nH]1)/C=C1\C(=O)Nc3ccc(cc31)-c1cnn(C)c1CNCCN(C)C2=O [Ex. 125, [3a(4)Z]-6,9,14-trimethyl-9,10,11,12,13,14-hexahydro-1,17-(ethanediylidene)pyrazolo[4,3-m]dipyrrolo[3,2-f:3′,4′-i][1,4]diazacyclopentadecine-3,8(2H,5H)-dione]",,,,,,,27,0.1,1.4,0,1.2,0,
CN1CCSCCOc2cc3c(cc2Cl)NC(=O)/C3=C\c2[nH]ccc2C1=O [Ex. 153],0.3,9.5,1.4,2.4,79,1.7,,,,,,,
"Cc1cc2c([nH]1)/C=C1\C(=O)Nc3cc(Cl)c(cc31)OCCO[C@@H](C(=O)N1CCN(C)CC1)CN(C)C2=O [Ex. 138, [7R,16a(17)Z]-19-chloro-2,5-dimethyl-7-(4-methylpipearazine-1-carbonyl)-6,7,9,10-tetrahydro-1H-12,14-(ethanediylidene)dipyrrolo[3,2-i:3′,4′-l][1,4,7]dioxazacyclopentadecine-4,16(5H,15H)-dione]",73,71,95,63,82,45,,,,,,,
"Cc1cc2c([nH]1)/C=C1\C(=O)Nc3ccc(cc31)-c1cnn(C)c1OCCCN(C)C2=O [Ex. 166, [3a(4)Z]-9,14-dimethyl-9,10,11,12-tetrahydro-14H-1,17-(ethanediylidene)pyrazolo[4,3-n]dipyrrolo[3,2-g:3′,4′-j][1,5]oxazacyclopentadecine-3,8(2H,5H)-dione]",,,,,,,,,,,,,"% Ctrl, KIT(V559D, T670I) (kinases [1]; 1 μM; target KIT(V559D, T670I)): 65 % Ctrl; % Ctrl, ABL1(M351T)-phosphorylated (kinases [2]; [9]): 3.1 % Ctrl; % Ctrl, FLT3(K663Q) (kinases [3]; 1 μM; target FLT3(K663Q)): 1.7 % Ctrl; % Ctrl, RET (kinases [4]; 1 μM; target RET): 7.1 % Ctrl; % Ctrl, EGFR(L858R, T790M) (kinases [5]; [10]): 8.1 % Ctrl; % Ctrl, FLT3(D835Y) (kinases [6]; 1 μM; target FLT3(D835Y)): 1.9 % Ctrl"
"Cc1cc2c([nH]1)/C=C1\C(=O)Nc3ccc(cc31)-c1ccnn1CCOCCNC2=O [Ex.39, [19a(20)Z]-2-methyl-6,7,9,10-tetrahydro-1H-15,17-(ethanediylidene)pyrazolo[1,5-d]dipyrrolo[3,4-h:2′,3′-k][1,4,14]oxadiazacyclohexadecine-4,19(5H,18H)-dione]",,,,,,,85,58,100,85,90,96,
